Data from BindingDB's records for doi:10.1016/0960-894X(94)85036-4 (1994).
pIC50: −log10 of the molar value.

Biological target: Type-1 angiotensin II receptor (Rattus norvegicus)
Assay: […] inhibitory concentration against Angiotensin II receptor, type 1 of rat adrenal membrane

pIC50: 8.40
SMILES: CCCCOC(=O)NS(=O)(=O)c1ccccc1-c1ccc(Cn2c(CCCC)nc3ccc(NC(=O)N(C)C(C)C)cc3c2=O)cc1 [2-Butyl-3-(2'-(butyloxycarbonylaminosulphonyl)-biphenyl-4-ylmethyl)-6-(N-isopropyl-N-methyl-aminocarbonylamino)-3H-quinazolin-4-one]
